{"source": "patent US9410125B2", "about": "“Medium for mammalian somatic cells and additive therefor” (FUJIREBIO INC., priority 2007, dated 2016)", "system": "human bone marrow-derived mesenchymal stem cells (hMSCs)", "experiment": "Adipogenic differentiation of hMSCs (Oil Red O staining)", "type": "cell-based", "settings": "Example 2, differentiation into adipocytes and osteocytes", "procedure": "Cells maintained for several passages using the conventional medium in (2-2) and 1% S-3, 1% FCS were transferred to wells in a 96-well plate each containing 0.1 mL of an adipocyte differentiation medium (DMEM, 10% FCS, 500 μM isobutylmethylxanthine (IBMX), 1 μM dexamethasone, 1 μM insulin, 1 μM Rosiglitazone) at a cell density of 20,000 cells/cm2, and cultured at 37° C. under 5% CO2 for 14 days, to induce differentiation into adipocytes. differentiated cells were confirmed by Oil Red O staining.\nCells maintained for several passages using conventional medium A and serum-free growth medium A were transferred to wells in a 48-well plate each containing 0.3 mL of an adipocyte differentiation medium (DMEM, 10% FCS, 500 μM IBMX, 1 μM dexamethasone, 1 μM insulin, 1 μM Rosiglitazone) at a cell density of 30,000 cells/cm2, and cultured at 37° C. under 5% CO2 for 14 days, to induce differentiation into adipocytes. differentiated cells were confirmed by Oil Red O staining. […]", "data": [{"smiles": "CCCCCCCCCCCCC/C=C/[C@@H](O)[C@@H](N)COP(=O)(O)O", "note": "[S1P, sphingosine-1-phosphate]", "values": [{"measurement": "tendency in differentiation when used instead of LPA as the Edg ligand", "value": "did not change"}]}]}
